# Assay results taken from ChEMBL document CHEMBL1201862, “PubChem BioAssay data set” (2004).
#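 Where inhibition never reached the appropriate level, the endpoint shown equals the highest concentration tested. Otherwise, values were interpolated linearly from a five-concentration, 48-hour dose response in 96-well plates. The concentration for 50% growth inhibition is given as GI50.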 Active and inactive are the calls of the source. Rule as the data show it: active = GI50 up to about 1.1 µM and inactive = higher.
# Legend:
# Assay in all cases: growth of human tumour cells (NCI), 48 h
# [1] = test system: OVCAR-4
# [2] = test system: U-251
# [3] = test system: Malme-3M
# [4] = test system: NCI-H460
# [5] = test system: HCC 2998
# [6] = test system: LXFL 529
# [7] = test system: SF-539
# [8] = test system: TK-10
# [9] = test system: DMS-114
# [10] = test system: HT-29
# [11] = test system: A549
# [12] = test system: 786-0
# [13] = test system: MOLT-4
# [14] = test system: IGROV-1
# [15] = test system: K562
# [16] = test system: M19-MEL
# [17] = test system: OVCAR-3
# [18] = test system: HCT-116
# [19] = test system: SR
# [20] = test system: EKVX
# [21] = test system: HL-60
# [22] = test system: NCI-H23
# [23] = test system: UACC-257
# [24] = test system: UO-31
# [25] = test system: SK-MEL-5
# [26] = test system: M14
# [27] = test system: COLO 205
# [28] = test system: SNB-78
# [29] = test system: SNB-75
# [30] = test system: NCI-H226
# [31] = test system: SK-MEL-2
# [32] = test system: DMS-273
# [33] = test system: SK-OV-3
# [34] = test system: RPMI-8226
# [35] = test system: OVCAR-8
# [36] = test system: ACHN
# [37] = test system: UACC-62
# [38] = test system: HOP-18
# [39] = test system: SW-620
# [40] = test system: SNB-19
# [41] = test system: SF-295
# [42] = test system: LOX IMVI
# [43] = test system: A498
# [44] = test system: SF-268
# [45] = test system: HOP-92
# [46] = test system: XF498
# [47] = test system: DLD-1
# [48] = test system: KM12
# [49] = test system: SK-MEL-28
# [50] = test system: NCI-H522
# [51] = test system: HCT-15
# [52] = test system: OVCAR-5
# [53] = test system: CAKI-1
# [54] = test system: CCRF-CEM
# [55] = test system: HOP-62
structure (smiles),measurement,setting,value
CCC1(c2c(F)c(F)c(N)c(F)c2F)CCC(=O)NC1=O (stereo not given),GI50,[1],> 100 µM (inactive)
same,GI50,[2],> 100 µM (inactive)
same,GI50,[3],> 100 µM (inactive)
same,GI50,[4],> 100 µM (inactive)
same,GI50,[5],> 100 µM (inactive)
same,GI50,[6],> 100 µM (inactive)
same,GI50,[7],> 100 µM (inactive)
same,GI50,[8],> 100 µM (inactive)
same,GI50,[9],> 100 µM (inactive)
same,GI50,[10],> 100 µM (inactive)
same,GI50,[11],> 100 µM (inactive)
same,GI50,[12],> 100 µM (inactive)
same,GI50,[13],> 100 µM (inactive)
same,GI50,[14],> 100 µM (inactive)
same,GI50,[15],> 100 µM (inactive)
same,GI50,[16],> 100 µM (inactive)
same,GI50,[17],> 100 µM (inactive)
same,GI50,[18],> 100 µM (inactive)
same,GI50,[19],> 100 µM (inactive)
same,GI50,[20],> 100 µM (inactive)
same,GI50,[21],> 100 µM (inactive)
same,GI50,[22],> 100 µM (inactive)
same,GI50,[23],> 100 µM (inactive)
same,GI50,[24],> 100 µM (inactive)
same,GI50,[25],> 100 µM (inactive)
same,GI50,[26],> 100 µM (inactive)
same,GI50,[27],> 100 µM (inactive)
same,GI50,[28],> 100 µM (inactive)
same,GI50,[29],38.7 µM (inactive)
same,GI50,[30],> 100 µM (inactive)
same,GI50,[31],> 100 µM (inactive)
same,GI50,[32],> 100 µM (inactive)
same,GI50,[33],> 100 µM (inactive)
same,GI50,[34],> 100 µM (inactive)
same,GI50,[35],> 100 µM (inactive)
same,GI50,[36],> 100 µM (inactive)
same,GI50,[37],> 100 µM (inactive)
same,GI50,[38],> 100 µM (inactive)
same,GI50,[39],> 100 µM (inactive)
same,GI50,[40],> 100 µM (inactive)
same,GI50,[41],> 100 µM (inactive)
same,GI50,[42],> 100 µM (inactive)
same,GI50,[43],> 100 µM (inactive)
same,GI50,[44],> 100 µM (inactive)
same,GI50,[45],> 100 µM (inactive)
same,GI50,[46],> 100 µM (inactive)
same,GI50,[47],> 100 µM (inactive)
same,GI50,[48],> 100 µM (inactive)
same,GI50,[49],> 100 µM (inactive)
same,GI50,[50],> 100 µM (inactive)
same,GI50,[51],> 100 µM
same,GI50,[52],> 100 µM (inactive)
same,GI50,[53],> 100 µM (inactive)
same,GI50,[54],> 100 µM (inactive)
same,GI50,[55],> 100 µM (inactive)
